Results as given in PMC12156367, “Synthesis and Biological Evaluation of Seco-Coumarin/Furoxan Hybrids as Potent Anti-Tumor Agents to Overcome Multidrug Resistance via Multiple Mechanisms” (Molecules, 2025).
Read-outs that look alike come from different tables or passages of the source.

Assays:
[1] = Solubility experiment (HPLC) in water/acetonitrile; format: physicochemical; details: in water/acetonitrile (table title)
Experimental: Wavelength: 254 nm; flow rate: 1.0 mL/min; column temperature: 25 °C. Mobile phase: Phase A: water, Phase B: acetonitrile (Table 5).
Compounds were dissolved in chromatographic-grade acetonitrile and diluted to concentrations of 200, 100, 50, 25, 12.5, and 6.25 µg/mL. A standard curve was plotted using the peak area under the curve (AUC) versus concentration. […] The supernatant was filtered through an ultrafiltration membrane and then subjected to HPLC analysis. The solubility of the target compound was determined by substituting the AUC of the test compound into the standard curve. Each measurement was performed in triplicate.

[2] = tested on: human normal mammary epithelial cell lines MCF-10A; experiment: Cytotoxicity in normal mammary epithelial cells (MTT); format: cell-based; details: normal mammary epithelial cell line
Source text: The MDA-MB-468 cell line was procured from the Cell Bank of the Chinese Academy of Sciences. The MCF-7, MCF-7/ADR, MCF-10A, and MDA-MB-231 cell lines were kindly provided by Professor Xianyi Sha (Fudan University, Shanghai, China). The HUVEC cells were kindly provided by Associate Professor Hulie Zeng (Fudan University, Shanghai, China). The MDA-MB-468, MDA-MB-231, MCF-7, MCF-10A, and HUVEC cells were cultivated in DMEM (Service Biotechnology, China) supplemented with 10% FBS (Capricorn Scientific, Germany) and 1% penicillin-streptomycin (Meilunbio, Dalian, China). For the MCF-7/ADR cells, they were cultured in RPMI-1640 (Service Biotechnology, Wuhan, China), containing 10% FBS and 1% penicillin-streptomycin. […]
(§1) Following harvest during logarithmic growth, cells were plated in 96-well culture plates at an initial density of 5000 cells per well. […] The OD value at 570nm was measured using a microplate reader (Thermo Fisher, Waltham, MA, USA). Cell proliferation inhibition was determined using the following formula:Inhibition (%) = [(ODDMSO − ODcompd.)/(ODDMSO − ODblank)] × 100
GraphPad Prism software 9 was used to calculate the IC50 values. […] For instance, in the cell experiment, we recorded the cell viability values at different drug concentrations. […]

[3] = tested on: MCF-7/ADR (doxorubicin-resistant human breast cancer cell line); experiment: In vitro antiproliferative assay (MTT, 48 h), MCF-7/ADR; format: cell-based; details: for Selectivity Ratio IC50(MCF-7)/ IC50(MCF-7/ADR): collateral sensitivity
Source text: (§2) The MDA-MB-468 cell line was procured from the Cell Bank of the Chinese Academy of Sciences. The MCF-7, MCF-7/ADR, MCF-10A, and MDA-MB-231 cell lines were kindly provided by Professor Xianyi Sha (Fudan University, Shanghai, China). The HUVEC cells were kindly provided by Associate Professor Hulie Zeng (Fudan University, Shanghai, China). The MDA-MB-468, MDA-MB-231, MCF-7, MCF-10A, and HUVEC cells were cultivated in DMEM (Service Biotechnology, China) supplemented with 10% FBS (Capricorn Scientific, Germany) and 1% penicillin-streptomycin (Meilunbio, Dalian, China). For the MCF-7/ADR cells, they were cultured in RPMI-1640 (Service Biotechnology, Wuhan, China), containing 10% FBS and 1% penicillin-streptomycin. Additionally, 500 ng/mL of doxorubicin (Sigma-Aldrich, Saint Louis, MO, USA) was incorporated into the RPMI-1640 culture medium to keep drug resistance. All cell lines were cultured in a humidified incubator at 37 °C with a 5% CO2 atmosphere.
Following harvest during logarithmic growth, cells were plated in 96-well culture plates at an initial density of 5000 cells per well. Incubate the plate overnight at 37 °C to allow the cells to adhere. Following the overnight incubation, introduce the compound at the predetermined concentration into each well, and then return the plate to the incubator for an additional 48 h culture period. After the 48 h treatment, carefully aspirate the drug-containing medium from each well. Subsequently, add 150 μL of 0.5 mg/mL MTT (Beyotime, China) solution to each well. Protect the plate from light and incubate it at 37 °C for 4 h to allow the formation of formazan crystals. Finally, add 150 μL of DMSO (Sinopharm, China) to each well and gently mix to ensure complete dissolution of the formazan crystals. The OD value at 570nm was measured using a microplate reader (Thermo Fisher, Waltham, MA, USA). Cell proliferation inhibition was determined using the following formula:Inhibition (%) = [(ODDMSO − ODcompd.)/(ODDMSO − ODblank)] × 100
GraphPad Prism software 9 was used to calculate the IC50 values. The specific calculation process is as follows: Firstly, we input the experimental data into Prism. The data include the concentrations of the experimental compounds and the corresponding biological response values. For instance, in the cell experiment, we recorded the cell viability values at different drug concentrations. Subsequently, we select the option of “Dose–Response–Nonlinear Regression” in the “Analyze” menu for curve fitting. Generally speaking, we use the model of “[Inhibitor] vs. normalized response—Variable slope”. The Prism software fits the data through the nonlinear least squares method and finds the parameter values that can minimize the difference between the model’s predicted values and the actual data. After completing the curve fitting, the software will directly provide the estimated values and confidence intervals of the IC50 value and other relevant parameters. Meanwhile, it will also offer goodness-of-fit indices, such as the correlation coefficient, to evaluate the quality of the fitting. Through the above method, we can accurately calculate the IC50 value, thereby assessing the intensity of the inhibitory or activating effect of the compound on the biological system.

[4] = tested on: MCF-7/ADR (doxorubicin-resistant human breast cancer cell line); details: earlier compounds, ref 19 (4A93), 20 (6C44), cited from earlier work; for IC50: read-out: IC50 MCF-7/ADR (Figure 2)
[5] = tested on: HUVEC (human umbilical vein endothelial cell lines); experiment: Cytotoxicity screen in HUVEC; format: cell-based; details: 500 nM concentration
Source text: as §2
as §1, with “well. Incubate the plate overnight at 37 °C to allow the cells to adhere.” for “well.”, “100 […]” for “100”

| SMILES | Solubility [1] [%] | Selectivity Ratio IC50(MCF-7)/ IC50(MCF-7/ADR) [3] | IC50 [4] [nM] | other results |
| --- | --- | --- | --- | --- |
| COc1ccc(/C=C/C(=O)c2ccc(OCCCOc3no[n+]([O-])c3S(=O)(=O)c3ccccc3)cc2OC)cc1 [Compound 6d, (E)-4-(3-(3-methoxy-4-(3-(4-methoxyphenyl)acryloyl)phenoxy)propoxy)-3-(phenylsulfonyl)-1,2,5-oxadiazole 2-oxide] | 24.3 ± 2.5 | 91.1 | – | IC50 [2]: 13.4 µM |
| Cc1c(Cc2ccc(C(F)(F)F)cc2)c(=O)oc2cc(OCCOc3no[n+]([O-])c3S(=O)(=O)c3ccccc3)ccc12 [Compound 4A93] | – | – | 5 | – |
| COc1cc(OCCOc2no[n+]([O-])c2S(=O)(=O)c2ccccc2)ccc1C(=O)/C=C/c1ccccc1 [Compound 6C44] | – | – | 4.2 | IC50(MCF-7)/IC50(MCF-7/ADR) (Figure 2) [4]: 199.2 |
| COc1cc(OCCOc2no[n+]([O-])c2S(=O)(=O)c2ccccc2)ccc1C(C)=O [Compound 12a, 4-(2-(4-acetyl-3-methoxyphenoxy)ethoxy)-3-(phenylsulfonyl)-1,2,5-oxadiazole 2-oxide] | 67.9 ± 7.8 | 189.3 | – | cell survival probability in HUVEC [5]: over 90% |
| N#Cc1ccc(CNC(=O)c2ccc(OCCOc3no[n+]([O-])c3S(=O)(=O)c3ccccc3)cc2O)cc1 [Compound 16e, 4-(2-(4-((4-cyanobenzyl)carbamoyl)-3-hydroxyphenoxy)ethoxy)-3-(phenylsulfonyl)-1,2,5-oxadiazole 2-oxide] | 33.8 ± 5.3 | 561.9 | – | IC50 ([3]; Homo sapiens, NCI/ADR-RES, MTT, 48 h, mean of three determinations): 5.36 nM |
| O=C(NCc1ccc(F)cc1)c1ccc(OCCOc2no[n+]([O-])c2S(=O)(=O)c2ccccc2)cc1O [Compound 16b, 4-(2-(4-((4-fluorobenzyl)carbamoyl)-3-hydroxyphenoxy)ethoxy)-3-(phenylsulfonyl)-1,2,5-oxadiazole 2-oxide] | 31.6 ± 6.8 | 27.8 | – | – |
